Source: publication PMC10120462, “Styrylquinazoline derivatives as ABL inhibitors selective for different DFG orientations” (Journal of Enzyme Inhibition and Medicinal Chemistry, 2023)

What was measured:
BRK = target: T1, BRK (Homo sapiens, UniProt Q13882); test: Tyrosine kinase assay (Kinase Selectivity System TK-2, ADP-Glo); format: biochemical; conditions: 1 h incubation, mean ± SD of four experiments
T1 construct: purchased Promega

Fyn A = target: T2, Fyn A (Homo sapiens, UniProt P06241); test: as above; format: biochemical; conditions: 1 h incubation, mean ± SD of four experiments
T2 construct: purchased Promega
T2 sequence (P06241 whole entry): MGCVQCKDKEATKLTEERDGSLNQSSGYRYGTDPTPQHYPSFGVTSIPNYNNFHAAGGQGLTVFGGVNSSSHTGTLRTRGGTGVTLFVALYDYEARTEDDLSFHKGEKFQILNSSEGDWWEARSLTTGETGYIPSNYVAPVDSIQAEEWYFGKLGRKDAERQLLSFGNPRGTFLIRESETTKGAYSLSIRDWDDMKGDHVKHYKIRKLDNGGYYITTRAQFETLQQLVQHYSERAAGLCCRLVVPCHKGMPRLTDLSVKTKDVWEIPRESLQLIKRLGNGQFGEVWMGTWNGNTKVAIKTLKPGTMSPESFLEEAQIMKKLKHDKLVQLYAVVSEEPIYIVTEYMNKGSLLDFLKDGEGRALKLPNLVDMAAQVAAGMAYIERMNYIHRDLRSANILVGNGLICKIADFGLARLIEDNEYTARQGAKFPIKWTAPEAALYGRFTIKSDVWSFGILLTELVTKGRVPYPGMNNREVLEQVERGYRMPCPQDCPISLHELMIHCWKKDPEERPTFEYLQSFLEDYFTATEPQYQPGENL
How it was run: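 Full-length, unphosphorylated non-receptor tyrosine kinases with regulatory domains, supplemented with ATP and incubated 1 h with peptide substrate. ADP formation read by ADP-Glo luminescence. Values are percent kinase inhibition from at least four experiments.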

Lck = target: T3, Lck (Homo sapiens, UniProt P06239); test: as above; format: biochemical; conditions: 1 h incubation, mean ± SD of four experiments
T3 construct: purchased Promega
T3 sequence (P06239 whole entry): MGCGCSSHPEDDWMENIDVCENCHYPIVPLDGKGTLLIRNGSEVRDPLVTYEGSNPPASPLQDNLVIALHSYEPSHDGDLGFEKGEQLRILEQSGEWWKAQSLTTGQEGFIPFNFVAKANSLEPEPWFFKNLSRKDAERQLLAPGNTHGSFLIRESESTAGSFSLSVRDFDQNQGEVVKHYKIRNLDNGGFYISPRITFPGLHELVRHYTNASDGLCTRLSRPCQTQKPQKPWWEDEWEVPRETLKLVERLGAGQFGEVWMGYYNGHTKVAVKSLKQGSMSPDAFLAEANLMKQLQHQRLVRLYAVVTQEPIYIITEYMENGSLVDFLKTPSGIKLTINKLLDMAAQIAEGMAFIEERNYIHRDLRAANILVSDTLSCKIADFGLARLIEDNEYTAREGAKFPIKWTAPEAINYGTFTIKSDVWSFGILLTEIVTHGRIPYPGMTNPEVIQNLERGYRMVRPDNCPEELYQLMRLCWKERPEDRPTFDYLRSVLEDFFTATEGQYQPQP

Src = target: T4, Src (Homo sapiens, UniProt P12931); test: as above; format: biochemical; conditions: 1 h incubation, mean ± SD of four experiments
T4 construct: purchased Promega
T4 sequence (P12931 whole entry): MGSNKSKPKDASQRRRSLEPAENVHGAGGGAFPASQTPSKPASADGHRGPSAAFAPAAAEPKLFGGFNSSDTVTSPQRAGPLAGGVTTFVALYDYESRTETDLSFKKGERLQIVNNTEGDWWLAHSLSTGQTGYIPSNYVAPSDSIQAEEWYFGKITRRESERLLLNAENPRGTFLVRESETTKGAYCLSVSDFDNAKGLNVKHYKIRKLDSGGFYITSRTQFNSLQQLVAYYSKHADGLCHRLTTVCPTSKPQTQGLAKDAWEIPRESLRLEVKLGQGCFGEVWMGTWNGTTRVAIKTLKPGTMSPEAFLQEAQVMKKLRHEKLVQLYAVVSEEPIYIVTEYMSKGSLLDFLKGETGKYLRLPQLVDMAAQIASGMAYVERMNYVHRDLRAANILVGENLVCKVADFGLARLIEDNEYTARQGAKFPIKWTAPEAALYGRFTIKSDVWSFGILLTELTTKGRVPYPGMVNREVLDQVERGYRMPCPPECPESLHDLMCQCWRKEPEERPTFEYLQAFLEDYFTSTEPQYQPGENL

K562 cells [1] = test: Cell cycle assay (Muse Cell-Cycle Kit, flow cytometry); format: cell-based, human; conditions: 16 h; for Population of cells in the G0/G1 phase: untreated 42.56%; for Fraction of cells in the G2/M phase: control 28.68%
Protocol: The interesting inhibitory potential of ABL kinase and the high antiproliferative activity of several styrylquinazoline derivatives prompted us to further investigate their mechanism of action.
K562 cells were seeded in 3 cm Petri dishes (Nunc) at a density of 150,000 cells per well and incubated under standard conditions at 37 °C for 24 h. […] After 16 h of treatment, assays were performed using a Muse Cell-Cycle Kit (Millipore) according to the supplier’s instructions. Briefly, leukaemia cells were collected, washed in cold PBS, and centrifuged. Cells were then fixed in ice-cold 70% ethanol and stored at −20 °C overnight. The next day, leukaemia cells were washed with cold PBS, centrifuged and resuspended in Muse™ Cell Cycle Reagent. Samples were incubated for 30 min at room temperature in the dark. After staining, the levels of cellular subpopulations in each cell cycle phase were determined using a Muse Cell Analyser (Millipore). Experiments were performed at least four times.

K562 cells [2] = test: Analysis of mRNA expression (RT-qPCR); format: cell-based, human; conditions: 16 h; IS1 50 µM, IS8 12 µM, IS10 20 µM, imatinib 2 µM, GNF-2 2 µM
From the text: In the next step, the inhibitory potential of the tested compounds at the gene and protein levels was verified in K562 cells. For this purpose, we examined changes in the expression of the ABL signalling pathway and ABL downstream targets after exposure to IS1, IS8 and IS10. […] The enhanced transcription of the ABL gene might be related to the low protein level that was reached after exposure to the tested drugs. Thus, the cellular machinery could induce increased protein synthesis to counteract the effects of inhibition. […] The second gene studied, SRC, is involved in signal transduction from growth factors and receptors. Similar to ABL, the Src protein has oncogenic activity and is overexpressed in cancer cells. It is also important to emphasise that both kinases form a specific direct signalling network, as […].
Reverse transcription was carried out with 1 μg total RNA using a ProtoScript M-MuLV First Strand cDNA Synthesis Kit (New England BioLabs). The RT-qPCR was performed using a CTX96 Real-Time PCR Detection System (Biorad) in a 10 μL reaction volume containing Luna Universal qPCR Master Mix (New England BioLabs), specific primer pair mix and cDNA. The PCR reaction was performed as follows: initial denaturation at 95 °C for 60 s; followed by 40 cycles of denaturation at 95 °C, 15 s; annealing (primer-specific temperature for 30 s) and extension at 72 °C for 30 s. Melting curve analysis was used to determine the specific PCR products. The results were analysed based on comparison of the expression of the target genes with the reference gene – HPRT1 using the 2^−^ΔΔ^CT method. Experiments were performed at least four times.

T1 sequence (Q13882 whole entry): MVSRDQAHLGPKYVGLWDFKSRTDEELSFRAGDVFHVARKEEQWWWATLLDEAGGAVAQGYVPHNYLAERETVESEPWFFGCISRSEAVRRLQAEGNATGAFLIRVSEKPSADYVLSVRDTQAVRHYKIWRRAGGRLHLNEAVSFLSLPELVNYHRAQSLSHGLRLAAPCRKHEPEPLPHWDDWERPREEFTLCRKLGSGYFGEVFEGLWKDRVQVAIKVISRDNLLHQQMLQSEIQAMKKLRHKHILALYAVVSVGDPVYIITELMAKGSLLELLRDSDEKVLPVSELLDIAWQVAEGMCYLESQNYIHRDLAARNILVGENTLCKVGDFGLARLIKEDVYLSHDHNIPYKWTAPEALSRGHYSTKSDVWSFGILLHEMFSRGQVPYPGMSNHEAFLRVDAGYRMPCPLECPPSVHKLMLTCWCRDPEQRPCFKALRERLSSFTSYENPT

| Inhibition of tyrosine kinase activity [%] BRK (BRK; 0.5 μM) | inhibition at 0.5 µM (BRK) | inhibition at 0.5 µM (Fyn A) | Inhibition of tyrosine kinase activity [%] Lck (Lck; 0.5 μM) | inhibition at 0.5 µM (Lck) | Inhibition of tyrosine kinase activity [%] Src (Src; 0.5 μM) | inhibition at 0.5 µM (Src) | SMILES | Cell cycle arrest (phase) (K562 cells [1]) | Population of cells in the G0/G1 phase (K562 cells [1]; concentration not given) | Expression of the ABL gene (mRNA) (K562 cells [2]) | SRC mRNA levels (K562 cells [2]) | Population of cells in the S phase (K562 cells [1]; concentration not given, control 23.66%) | Fraction of cells in the G2/M phase (K562 cells [1]; concentration not given) | CCNE2 expression (mRNA) (K562 cells [2]) | Fraction of cells in the G2/M phase (K562 cells [1]; 12 µM) |
| --- | --- | --- | --- | --- | --- | --- | --- | --- | --- | --- | --- | --- | --- | --- | --- |
| 51.27 ± 9.04% | 51% | 90.4 ± 9.9% | 79.08 ± 3.51% | 79% | 79.52 ± 9.56% | 79% | COc1ccccc1/C=C/c1nc(Sc2ccccc2Cl)c2ccccc2n1 [IS1, 2-[(E)-2–(2-methoxyphenyl)ethenyl]-4–(2-chlorophenylthio)quinazoline] | cell cycle arrest in G0/G1 phase | 50.85% | slight non-significant decrease | significant decrease | – | – | – | – |
| – | 25 ± 8.51% | 21.5 ± 5.71% | – | 28.1 ± 5.74% | – | 0% | COc1ccccc1/C=C/c1nc(Sc2ccc3c(c2)OCO3)c2ccccc2n1 [IS10, 5-{2-[(E)-2–(2-methoxyphenyl)ethenyl]quinazolin-4-ylthio}-2H-1,3-benzodioxole] | – | 33.00% | significantly enhanced | – | 12.85% | 46.35% | significant decrease | – |
| – | 15.8 ± 2.25% | 0% | – | 0% | – | 5.12 ± 0.96% | COc1ccccc1/C=C/c1nc(Sc2cccc(O)c2)c2ccccc2n1 [IS8, 3-{2-[(E)-2–(2-methoxyphenyl)ethenyl]quinazolin-4-ylthio}phenol] | arrested the cells in G2/M phase | – | – | – | – | – | significant decrease | 39.38% |

| SMILES | Inhibition of tyrosine kinase activity [%] BRK (BRK; 0.5 μM) | inhibition at 0.5 µM (BRK) | inhibition at 0.5 µM (Fyn A) | Inhibition of tyrosine kinase activity [%] Lck (Lck; 0.5 μM) | inhibition at 0.5 µM (Lck) | Inhibition of tyrosine kinase activity [%] Src (Src; 0.5 μM) | inhibition at 0.5 µM (Src) | Cell cycle arrest (phase) (K562 cells [1]) | Population of cells in the G0/G1 phase (K562 cells [1]; concentration not given) | Expression of the ABL gene (mRNA) (K562 cells [2]) | SRC mRNA levels (K562 cells [2]) | Population of cells in the S phase (K562 cells [1]; concentration not given, control 23.66%) | Fraction of cells in the G2/M phase (K562 cells [1]; concentration not given) | CCNE2 expression (mRNA) (K562 cells [2]) | Fraction of cells in the G2/M phase (K562 cells [1]; 12 µM) |
| --- | --- | --- | --- | --- | --- | --- | --- | --- | --- | --- | --- | --- | --- | --- | --- |
| NC(=O)c1cccc(-c2cc(Nc3ccc(OC(F)(F)F)cc3)ncn2)c1 [GNF-2, reference compound] | – | 0% | 0% | – | 0% | – | 0% | inhibition of G0/G1 phase | – | significantly enhanced | significant decrease | – | – | – | – |
